The values that follow come from patent publication US20250195521A1 (Revolution Medicines, Inc., priority 2020, published 2025).

One assay concerns the target KRAS G13D (Homo sapiens (Human), UniProt P01116+P62937, G13D). As to the kind of experiment: Ras-Raf disruption/FRET/MOA assay (BRAF RBD, Cyclophilin A). The note with it: read-out: KRAS G13D FRET data IC50. Type of assay: biochemical. The method, boiled down: (§1)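 TR-FRET read after 1.5 h with 10 nM anti-His Eu-W1024 and 50 nM anti-GST APC, following 3 h at 25 °C of GMPPNP-loaded His6-Ras (12.5 nM), GST-BRAF RBD (50 nM) and Cyclophilin A (25 μM) with compound from 30 μM final, 10 points, 3-fold. IC50 reported; pH 7.3 HEPES, 100 mM NaCl.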

For the next assay, the target named is KRAS G12V (Homo sapiens (Human), UniProt P01116+P62937, G12V). Described as above. The note with it: read-out: KRAS G12V FRET IC50. In kind it is biochemical. In outline:
as §1

For another assay, the target named is KRAS G13C (Homo sapiens (Human), UniProt P01116+P62937, G13C). Described as above. The note with it: read-out: KRAS G13C FRET IC50. Type of assay: biochemical. In outline:
as §1

A further assay addresses KRAS G12C (Homo sapiens (Human), UniProt P01116+P62937, G12C). Described as above. Type of assay: biochemical. The note with it: read-out: KRAS G12C FRET IC50. In outline:
as §1

A further assay deals with KRAS WT (Homo sapiens (Human), UniProt P01116+P62937). The description is as above. In kind it is biochemical. The note with it: read-out: KRAS WT FRET data IC50. The method, boiled down: as §1
Sequence of KRAS WT (P01116 other isoform, or with tags, fused parts or gaps): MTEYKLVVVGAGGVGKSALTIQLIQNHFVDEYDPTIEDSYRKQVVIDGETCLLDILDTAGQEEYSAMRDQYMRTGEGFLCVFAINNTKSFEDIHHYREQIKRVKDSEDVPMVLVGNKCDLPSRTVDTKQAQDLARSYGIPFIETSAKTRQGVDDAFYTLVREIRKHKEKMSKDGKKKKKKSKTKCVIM
Sequence of KRAS WT (P62937 whole entry): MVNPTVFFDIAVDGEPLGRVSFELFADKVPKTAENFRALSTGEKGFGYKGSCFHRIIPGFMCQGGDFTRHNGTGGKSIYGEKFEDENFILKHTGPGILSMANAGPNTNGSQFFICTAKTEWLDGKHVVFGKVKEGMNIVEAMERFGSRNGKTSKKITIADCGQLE
The target of the next assay is KRAS G12S (Homo sapiens (Human), UniProt P01116+P62937, G12S). The assay is described as above. Type of assay: biochemical. The note with it: read-out: KRAS G12S FRET IC50. In outline:
as §1

In a further assay the target is NRAS G12C (Homo sapiens (Human), UniProt P01111+P62937, G12C). The description is as above. The note with it: read-out: NRAS G12C FRET data IC50. In kind it is biochemical. The method, boiled down: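 Ras-GMPPNP (12.5 nM), BRAF RBD (50 nM) and 25 μM Cyclophilin A were incubated with compound for 3 h at 25° C, then detected 1.5 h with anti-His Eu and anti-GST APC; IC50 values follow from the reduced TR-FRET ratio.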
Sequence of NRAS G12C (P01111 whole entry G12C): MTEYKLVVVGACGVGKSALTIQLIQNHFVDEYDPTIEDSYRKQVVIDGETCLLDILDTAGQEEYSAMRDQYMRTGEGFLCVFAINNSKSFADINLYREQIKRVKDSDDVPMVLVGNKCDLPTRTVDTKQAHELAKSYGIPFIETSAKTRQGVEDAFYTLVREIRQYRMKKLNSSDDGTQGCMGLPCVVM
Sequence of NRAS G12C (P62937 whole entry): as the sequence (P62937 whole entry) above

Another assay deals with KRAS G12D (Homo sapiens (Human), UniProt P01116+P62937, G12D). The description is as above. Type of assay: biochemical. The note with it: read-out: KRAS G12D FRET IC50. The method, boiled down: as §1
Sequence of KRAS G12D (P01116 other isoform, or with tags, fused parts or gaps G12D): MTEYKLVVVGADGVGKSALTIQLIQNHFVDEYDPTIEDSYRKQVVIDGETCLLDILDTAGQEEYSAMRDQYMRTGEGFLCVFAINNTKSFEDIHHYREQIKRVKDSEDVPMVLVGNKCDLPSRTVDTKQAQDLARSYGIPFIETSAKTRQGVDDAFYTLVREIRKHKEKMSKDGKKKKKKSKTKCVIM
Sequence of KRAS G12D (P62937 whole entry): as the sequence (P62937 whole entry) above
Assay [1] deals with NCI-H358 cells (K-Ras G12C). Kind of assay: CellTiter-Glo cell viability, NCI-H358. Type of assay: cell-based, human. The note with it: Homo sapiens, NCI-H358, 120 h, K-Ras G12C, 5-day treatment; read-out: H358 Cell Viability IC50. How it is done:
Note—The following protocol describes a procedure for monitoring cell viability of K-Ras mutant cancer cell lines in response to a compound of the invention. Other RAS isoforms may be employed, though the number of cells to be seeded will vary based on cell line used.
Test compounds (132.5 nl) were directly dispensed into the assay plates containing cells. […] On day 5, assay plates and their contents were equilibrated to room temperature for approximately 30 minutes. […] Luminescence was measured using the PerkinElmer Enspire. Data were normalized by the following: (Sample signal/Avg. DMSO)*100. The data were fit using a four-parameter logistic fit.
In general terms: ATP-based viability assays read luminescence as a measure of living cells.

Assay [2] deals with Capan-1 cells (K-Ras G12V). As to the kind of experiment: CellTiter-Glo cell viability, Capan-1. Type of assay: cell-based, human. The note with it: Homo sapiens, CAPAN-1, 120 h, K-Ras G12V, 5-day treatment; read-out: Capan-1 Cell Viability IC50. The method, boiled down:
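Viability is read as luminescence after five days of compound exposure, with plates first equilibrated to room temperature for roughly 30 minutes. Each signal is expressed as a percentage of the mean DMSO control, and curves are fitted by four-parameter logistic regression.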

Each structure is given as a SMILES string.

Sequence of KRAS G12V (P01116 other isoform, or with tags, fused parts or gaps G12V): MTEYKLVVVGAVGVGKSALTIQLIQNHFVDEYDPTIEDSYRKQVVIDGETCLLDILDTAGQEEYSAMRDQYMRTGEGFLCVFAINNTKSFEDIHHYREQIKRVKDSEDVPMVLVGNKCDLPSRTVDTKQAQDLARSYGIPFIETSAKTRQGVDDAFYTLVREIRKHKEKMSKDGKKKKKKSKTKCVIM
Sequence of KRAS G12V (P62937 whole entry): as the sequence (P62937 whole entry) above
Sequence of KRAS G13D (P01116 other isoform, or with tags, fused parts or gaps G13D): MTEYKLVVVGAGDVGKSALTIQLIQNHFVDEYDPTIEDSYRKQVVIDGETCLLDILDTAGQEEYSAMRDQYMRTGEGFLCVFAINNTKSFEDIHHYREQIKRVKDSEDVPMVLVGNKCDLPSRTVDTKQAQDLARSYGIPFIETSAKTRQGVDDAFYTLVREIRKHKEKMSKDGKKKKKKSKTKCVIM
Sequence of KRAS G13D (P62937 whole entry): as the sequence (P62937 whole entry) above
Sequence of KRAS G13C (P01116 other isoform, or with tags, fused parts or gaps G13C): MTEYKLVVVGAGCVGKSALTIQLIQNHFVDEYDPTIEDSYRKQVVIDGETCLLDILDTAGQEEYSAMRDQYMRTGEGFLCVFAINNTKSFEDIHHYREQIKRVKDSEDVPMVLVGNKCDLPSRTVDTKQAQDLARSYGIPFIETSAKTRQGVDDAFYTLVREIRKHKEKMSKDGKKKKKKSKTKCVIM
Sequence of KRAS G13C (P62937 whole entry): as the sequence (P62937 whole entry) above
Sequence of KRAS G12C (P01116-2 other isoform, or with tags, fused parts or gaps G12C): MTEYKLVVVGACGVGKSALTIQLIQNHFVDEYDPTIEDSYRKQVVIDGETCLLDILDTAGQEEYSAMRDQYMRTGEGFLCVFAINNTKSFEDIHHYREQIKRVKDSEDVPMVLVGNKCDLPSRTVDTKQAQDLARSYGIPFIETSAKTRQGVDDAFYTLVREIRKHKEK
Sequence of KRAS G12C (P62937 whole entry): as the sequence (P62937 whole entry) above
Sequence of KRAS G12S (P01116 other isoform, or with tags, fused parts or gaps G12S): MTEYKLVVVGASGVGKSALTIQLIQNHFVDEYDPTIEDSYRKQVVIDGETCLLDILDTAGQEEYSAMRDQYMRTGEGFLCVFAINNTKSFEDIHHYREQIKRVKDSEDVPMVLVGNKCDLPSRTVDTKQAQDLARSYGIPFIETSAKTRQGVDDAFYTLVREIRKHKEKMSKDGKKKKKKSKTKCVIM
Sequence of KRAS G12S (P62937 whole entry): as the sequence (P62937 whole entry) above

As usually defined, the IC50 is the concentration that gives 50% inhibition. With `CCn1c(-c2cnccc2COC)c2c3cc(ccc31)-c1cc(O)cc(c1)C[C@H](NC(=O)[C@H](C(C)C)N(C)c1cnc(N)[nH]c1=O)C(=O)N1CCC[C@H](N1)C(=O)OCC(C)(C)C2` [Compound A63], the IC50 at KRAS G13D, on KRAS G12V, on KRAS G13C, at KRAS G12C, at KRAS WT and at KRAS G12S was 1 to 10 µM each time. Further, the IC50 at NRAS G12C is 1 to 10 µM; on KRAS G12D, greater than 10 µM; in assay [1], greater than 10 µM.
`CCn1c(-c2cnccc2COC)c2c3cc(ccc31)-c1cc(O)cc(c1)C[C@H](NC(=O)[C@H](C(C)C)N(C)C(=O)CCCCN)C(=O)N1CCC[C@H](N1)C(=O)OCC(C)(C)C2` [Compound A66]: the IC50 at KRAS G13D lay within 0.1 to 1 µM; on KRAS G12V it was 1 to 10 µM; on KRAS G13C it was 0.1 to 1 µM; at KRAS G12C, 0.1 to 1 µM; at KRAS WT it was 0.1 to 1 µM; at KRAS G12S, 0.1 to 1 µM. For the same compound, the IC50 lay in the range of 0.1 to 1 µM on NRAS G12C, 0.1 to 1 µM on KRAS G12D and 1 to 10 µM in assay [1].
For `CCn1c(-c2cnccc2COC)c2c3cc(ccc31)-c1cc(O)cc(c1)C[C@H](NC(=O)[C@H](C(C)C)N(C)C(=O)O[C@@H]1CCOC1)C(=O)N1CCC[C@H](N1)C(=O)OCC(C)(C)C2` [Compound A82], the IC50 in assay [2] lay within 1 to 10 µM; at KRAS G13D it was 1 to 10 µM; at KRAS G12V, 1 to 10 µM; at KRAS G13C, 0.1 to 1 µM; at KRAS G12C it was 0.1 to 1 µM; on KRAS WT it was 0.1 to 1 µM. Also, the IC50 (on KRAS G12S; at NRAS G12C; on KRAS G12D; in assay [1]) was 1 to 10 µM each time.
Turning to `CCn1c(-c2cccnc2[C@H](C)OC)c2c3cc(ccc31)-c1cc(O)cc(c1)C[C@H](NC(=O)[C@H](C(C)C)N(C)C(=O)[C@H]1[C@@H]3CNC[C@@H]31)C(=O)N1CCC[C@H](N1)C(=O)OCC(C)(C)C2` [Compound A163], the IC50 in assay [2] is greater than 10 µM; on KRAS G13D, 0.01 to 0.1 µM; at KRAS G12V, 1 to 10 µM; on KRAS G13C, 0.1 to 1 µM; at KRAS G12C it was 0.1 to 1 µM; on KRAS WT, 0.1 to 1 µM. Besides, the IC50 was in the range of 0.1 to 1 µM on KRAS G12S, 0.1 to 1 µM on NRAS G12C, 0.1 to 1 µM on KRAS G12D and 1 to 10 µM in [1].
Consider `CCn1c(-c2cccnc2[C@H](C)OC)c2c3cc(ccc31)-c1cc(O)cc(c1)C[C@H](NC(=O)[C@H](C(C)C)N(C)C(=O)[C@H]1CCN(C(=O)CCc3ccccc3)C1)C(=O)N1CCC[C@H](N1)C(=O)OCC(C)(C)C2` [Compound A201], for which the IC50 in assay [2] was in the range of 0.1 to 1 µM; on KRAS G13D, 0.1 to 1 µM; at KRAS G12V, 0.01 to 0.1 µM; at KRAS G13C, 0.01 to 0.1 µM; on KRAS G12C, 0.01 to 0.1 µM; on KRAS WT it was 0.1 to 1 µM. Further, the IC50 was in the range of 0.1 to 1 µM on KRAS G12S, 0.01 to 0.1 µM on NRAS G12C, 0.1 to 1 µM at KRAS G12D and 0.1 to 1 µM in [1].
Take `CCn1c(-c2ccccc2[C@H](C)OC)c2c3cc(ccc31)-c1csc(n1)C[C@H](NC(=O)[C@H](C(C)C)N(C)C(=O)[C@H]1CCN(C(=O)OC3COC3)C1)C(=O)N1CCC[C@H](N1)C(=O)OCC(C)(C)C2` [Compound A203]: the IC50 is 0.1 to 1 µM in assay [2]; 1 to 10 µM on KRAS G13D; 1 to 10 µM at KRAS G12V; 1 to 10 µM at KRAS G13C; 1 to 10 µM at KRAS G12C; 1 to 10 µM on KRAS WT. The IC50 at KRAS G12S was 1 to 10 µM; at NRAS G12C, 1 to 10 µM; at KRAS G12D, greater than 10 µM; in assay [1], 0.1 to 1 µM.
Turning to `CCn1c(-c2cccnc2[C@H](C)OC)c2c3cc(ccc31)-c1cc(O)cc(c1)C[C@H](NC(=O)[C@H](C(C)C)N(C)C(=O)[C@H]1CCN(C(=O)C(C)(C)NC)C1)C(=O)N1CCC[C@H](N1)C(=O)OCC(C)(C)C2` [Compound A381], the IC50 in assay [2] was 1 to 10 µM; on KRAS G13D, 0.01 to 0.1 µM; at KRAS G12V, 0.1 to 1 µM; on KRAS G12C it was 0.01 to 0.1 µM; at KRAS WT, 0.01 to 0.1 µM; on KRAS G12S it was 0.01 to 0.1 µM. The IC50 at NRAS G12C lay within 0.01 to 0.1 µM; at KRAS G12D, 0.01 to 0.1 µM; in assay [1], 0.1 to 1 µM.
